Patent publication US8084621B2, “3-Pyrrolo[b]cyclohexylene-2-dihydroindolinone derivatives and uses thereof” (Jiangsu Simcere Pharmaceutical R&D Co. Ltd., priority 2006, dated 2011)

Columns and labels:
Type in all cases: cell-based
[1] = tested on: Human Colon Cancer Cell Line (CACO-2); assay: Tumor cell proliferation assay (MTT), CACO-2; settings: concentration of 10^−5 mol/L, preliminary screening, 72 hours, read-out: Inhibition rate % CACO-2
Excerpt: (§1) The assay used generally is the blue tetrazolium bromide (MTT) method. […] The amount of formazan can be detected by the microplate reader through the absorption value at 570 nm. The amount of formazan product generated is proportional to the number of living cells in the sample, so the OD value may reflect the number of living cells and the ability of a test drug to inhibit or kill cells. The MTT assay may be used in determining the ability of different compounds of the present invention to inhibit one or more cancer cells proliferation. Similar assays can be designed along the same lines for any cancer cell using techniques well known in the art.
(§2) The assay used generally is the blue tetrazolium bromide (MTT) method. […] Intracellular purple formazan salt crystals can be solved in DMSO and the absorption value at 570 nm is detected by the microplate reader, then the number of living cells can be detected indirectly. So MTT assay may be used to determine the ability of a compound of the present invention to inhibit cell proliferation. Similar assays can be designed along the same lines for any cancer cell using techniques well known in the art.
2.2.10 Human Colon Cancer Cell Line (CACO-2)
The cell of 2.2.10 cultured in DMEM/High glucose medium containing 12% fetal bovine serum in the condition of 37° C., 5% CO2.
(§3) 2.3.1 Cell seeding: Trypsinize the cell by 0.05% trypsin-EDTA and add RPMI 1640 medium (DMEM or 5A) containing 12% calf serum. Count the number, then dilute to 1.67×10^4/ml. Add 180 ul/well to the 96 well plate (3000 cells/well).
(§4) 2.3.2 Culture: cells are incubated for 24 hours at 37° C. under 5% CO2.
(§5) 2.3.3 Preliminary screening: The compounds are firstly diluted to 0.1 mol/L with DMSO, and then diluted to three concentrations of 10^−5 mol/L, 10^−6 mol/L and 10^−7 mol/L. Add 20 ul test compounds to the 96 well plate and incubate for 72 hours. Each group has three parallel wells and all experiments repeat three times. Each inhibition ratio is calculated, then an average value of three times is taken as the measured value. 2.3.4 Staining 2.3.4.1 Attached cell: add 20 ul/well MTT to the 96-well plates; incubate for 4 hours in the incubator. Pour out the culture medium in the well and add 100 ul/well DMSO. Shake the plate for 5 min. 2.3.4.2 Suspension cell: add 20 ul/well MTT to the 96-well plates; incubate for 4 hours in the incubator. Add 50 ul/well 20% SDS and incubate for overnight in the incubator. 2.3.5 Reading the plates: read the absorbance A570-A630 with the Infinite M200 microtiter plate reader. Calculate the inhibition ratio of the test compounds. 2.3.6 Secondary screening: the compounds whose inhibition ratio is greater than 50% at the concentrations of 10^−5 mol/L in the preliminary screening will be picked out for Secondary screening. Dilute these compounds to ten concentrations: 10^−5 mol/L, 0.5×10^−5 mol/L, 10^−6 mol/L, 0.8×10^−6 mol/L, 0.6×10^−6 mol/L, 0.4×10^−6 mol/L, 0.2×10^−6 mol/L, 10^−7 mol/L, 0.8×10^−7 mol/L and 0.4×10^−7 mol/L. Add 20 ul test compound solution to the 96 well plate and incubate for 48 hours. Each group has three parallel wells and all experiments repeat for three times. Read the plates and calculate the inhibition ratio according to the preliminary screening method. 2.3.7 Calculate the Inhibition Ratio of Cell Proliferation and the IC50
(§6) According to the inhibition ratio of cell proliferation at the different concentrations of the compound, inhibition ratio of 50% of the test compound is calculated through the logarithm of the concentration of the compound with the Logit [I] linear regression, and an average value of three times is taken as the measured value of a sample.

[2] = tested on: Human Bladder Cancer Cell Line (T24); assay: Tumor cell proliferation assay (MTT), T24; settings: for inhibition at 10 µM: concentration of 10^−5 mol/L, preliminary screening, 72 hours, read-out: Inhibition rate % T24; for IC50: secondary screening, 48 hours
Excerpt: as §1, §2
2.2.7 Human Bladder Cancer Cell Line (T24);
The cells of 2.2.6, 2.2.7 cultured in RPMI 1640 medium containing 12% fetal bovine serum in the condition of 37° C., 5% CO2.
as §3, §4, §5, §6

[3] = tested on: Human Breast Cancer Cell Line (MCF-7); assay: Tumor cell proliferation assay (MTT), MCF-7; settings: for inhibition at 10 µM: MCF7, concentration of 10^−5 mol/L, preliminary screening, 72 hours, read-out: Inhibition rate % MCF-7; for IC50: MCF7, secondary screening, 48 hours
Excerpt: as §1, §2
2.2.9 Human Breast Cancer Cell Line (MCF-7);
The cells of 2.2.8, 2.2.9 cultured in DMEM/High glucose medium containing 12% calf serum in the condition of 37° C., 5% CO2.
as §3, §4, §5, §6

[4] = tested on: Human Leukemia Line (K562); assay: Tumor cell proliferation assay (MTT), K562; settings: for inhibition at 10 µM: concentration of 10^−5 mol/L, preliminary screening, 72 hours, read-out: Inhibition rate % K562; for IC50: secondary screening, 48 hours
Excerpt: as §1, §2
2.2.3 Human Leukemia Line (K562)
The cells of the 2.2.1, 2.2.2, 2.2.3, 2.2.4, 2.2.5 cultured with RPMI 1640 containing 12% calf serum in the condition of 37° C., 5% CO2.
as §3, §4, §5, §6

[5] = tested on: Human Small Cell Lung Cancer Cell Line (NCI-H446); assay: Tumor cell proliferation assay (MTT), NCI-H446; settings: for inhibition at 10 µM: concentration of 10^−5 mol/L, preliminary screening, 72 hours, read-out: Inhibition rate % NCI-H446; for IC50: secondary screening, 48 hours

SMILES | inhibition at 10 µM [1] [%] | inhibition at 10 µM [2] [%] | IC50 [2] [µM] | inhibition at 10 µM [3] [%] | IC50 [3] [µM] | inhibition at 10 µM [4] [%] | IC50 [4] [µM] | inhibition at 10 µM [5] [%] | IC50 [5] [µM]
CCN(CC)CCNC(=O)c1c(C)[nH]c2c1CCC/C2=C1/C(=O)Nc2ccc(F)cc21 [I-2, N-(2-(diethylamino)ethyl)-2-methyl-7-[1,2-dihydro-5-fluoro-2-oxo-3H-indol-(Z)-3-ylidene]-4,5,6,7-tetrahydro-1H-indole-3-carboxamide] | 43 | 81.4 | 3.31 | 55.4 | 7.88 | 95.3 | 3.51 | – | –
Cc1[nH]c2c(c1C(=O)NCC(O)CN1CCOCC1)CCC/C2=C1/C(=O)Nc2ccc(F)cc21 (stereo not shown) [I-68, N-(2-hydroxy-3-morpholinopropyl)-2-methyl-7-[1,2-dihydro-5-fluoro-2-oxo-3H-indol-(Z)-3-ylidene]-4,5,6,7-tetrahydro-1H-indole-3-carboxamide] | – | – | – | – | – | – | – | 29.1 | –
Cc1[nH]c2c(c1C(=O)NCC(O)CN1CCCCC1)CCC/C2=C1/C(=O)Nc2ccc(F)cc21 (stereo not shown) [I-74, N-(2-hydroxy-3-(piperidin-1-yl)propyl)-2-methyl-7-[1,2-dihydro-5-fluoro-2-oxo-3H-indol-(Z)-3-ylidene]-4,5,6,7-tetrahydro-1H-indole-3-carboxamide] | 83.1 | 98.7 | 2.64 | 70.7 | 7.01 | 95.1 | 0.93 | – | –
Cc1[nH]c2c(c1C(=O)NCCN(C)C)CCC/C2=C1/C(=O)Nc2ccc(F)cc21 [I-6, N-(2-(dimethylamino)ethyl)-2-methyl-7-[1,2-dihydro-5-fluoro-2-oxo-3H-indol-(Z)-3-ylidene]-4,5,6,7-tetrahydro-1H-indole-3-carboxamide] | – | – | – | – | – | – | – | 27.1 | –
CCN(CC)CCNC(=O)c1c(C)[nH]c2c1CCC/C2=C1/C(=O)Nc2ccc(C)cc21 [I-4, N-(2-(diethylamino)ethyl)-2-methyl-7-[1,2-dihydro-5-methyl-2-oxo-3H-indol-(Z)-3-ylidene]-4,5,6,7-tetrahydro-1H-indole-3-carboxamide] | – | – | – | – | – | – | – | 57.7 | 5.17
Cc1[nH]c2c(c1C(=O)NCC(O)CN1CCCCC1)CCC/C2=C1/C(=O)Nc2ccccc21 (stereo not shown) [I-73, N-(2-hydroxy-3-(piperidin-1-yl)propyl)-2-methyl-7-[1,2-dihydro-2-oxo-3H-indol-(Z)-3-ylidene]-4,5,6,7-tetrahydro-1H-indole-3-carboxamide] | 44.4 | 88.4 | 5.9 | 43.4 | – | 94.8 | 0.72 | – | –
Cc1[nH]c2c(c1C(=O)N1CCN(C)CC1)CCC/C2=C1/C(=O)Nc2ccc(F)cc21 [I-14, 2-methyl-3-(4-methylpiperazine-1-carbonyl)-7-[1,2-dihydro-5-fluoro-2-oxo-3H-indol-(Z)-3-ylidene]-4,5,6,7-tetrahydro-1H-indole] | 2.36 | 34.4 | – | – | – | – | – | – | –
CCN(CC)CC(O)CNC(=O)c1c(C)[nH]c2c1CCC/C2=C1/C(=O)Nc2ccccc21 (stereo not shown) [I-63, N-(3-(diethylamino)-2-hydroxypropyl)-2-methyl-7-[1,2-dihydro-2-oxo-3H-indol-(Z)-3-ylidene]-4,5,6,7-tetrahydro-1H-indole-3-carboxamide] | – | 99 | 3.04 | – | – | – | – | 79 | 2.27
Cc1[nH]c2c(c1C(=O)NCC(O)CN1CCCC1)CCC/C2=C1/C(=O)Nc2ccc(F)cc21 (stereo not shown) [I-71, N-(2-hydroxy-3-(pyrrolidin-1-yl)propyl)-2-methyl-7-[1,2-dihydro-5-fluoro-2-oxo-3H-indol-(Z)-3-ylidene]-4,5,6,7-tetrahydro-1H-indole-3-carboxamide] | – | – | – | – | – | – | – | 87.5 | 2.52
Cc1[nH]c2c(c1C(=O)NCC(O)CN1CCN(C)CC1)CCC/C2=C1/C(=O)Nc2ccc(F)cc21 (stereo not shown) [I-77, N-[2-hydroxy-3-(4-methylpiperazin-1-yl)propyl]-2-methyl-7-[1,2-dihydro-5-fluoro-2-oxo-3H-indol-(Z)-3-ylidene]-4,5,6,7-tetrahydro-1H-indole-3-carboxamide] | – | – | – | – | – | – | – | 57.2 | 8.15
Cc1[nH]c2c(c1C(=O)NCCO)CCC/C2=C1/C(=O)Nc2ccccc21 [I-8, N-(2-hydroxyethyl)-2-methyl-7-[1,2-dihydro-2-oxo-3H-indol-(Z)-3-ylidene]-4,5,6,7-tetrahydro-1H-indole-3-carboxamide] | 17 | 64.6 | – | 25.2 | – | 39.4 | – | – | –
CCN(CC)CCNC(=O)c1c(C)[nH]c2c1CCC/C2=C1/C(=O)Nc2ccccc21 [I-5, N-(2-(diethylamino)ethyl)-2-methyl-7-[1,2-dihydro-2-oxo-3H-indol-(Z)-3-ylidene]-4,5,6,7-tetrahydro-1H-indole-3-carboxamide] | 44.1 | 74.5 | 3.56 | 50.5 | 6.94 | 93.3 | 2.94 | – | –
Cc1[nH]c2c(c1C(=O)NCCCN(C)C)CCC/C2=C1/C(=O)Nc2ccc(Cl)cc21 [I-7, N-(3-(dimethylamino)propyl)-2-methyl-7-[1,2-dihydro-5-chloro-2-oxo-3H-indol-(Z)-3-ylidene]-4,5,6,7-tetrahydro-1H-indole-3-carboxamide] | – | – | – | – | – | – | – | 62.7 | 5.99
Cc1[nH]c2c(c1C(=O)NCC(O)CN1CCCC1)CCC/C2=C1/C(=O)Nc2ccccc21 (stereo not shown) [I-70, N-(2-hydroxy-3-(pyrrolidin-1-yl)propyl)-2-methyl-7-[1,2-dihydro-2-oxo-3H-indol-(Z)-3-ylidene]-4,5,6,7-tetrahydro-1H-indole-3-carboxamide] | – | – | – | – | – | – | – | 87 | 2.64
CCN(CC)CCNC(=O)c1c(C)[nH]c2c1CCC/C2=C1/C(=O)Nc2ccc(Cl)cc21 [I-3, N-(2-(diethylamino)ethyl)-2-methyl-7-[1,2-dihydro-5-chloro-2-oxo-3H-indol-(Z)-3-ylidene]-4,5,6,7-tetrahydro-1H-indole-3-carboxamide] | – | 98.1 | 1.83 | – | – | – | – | 69.9 | 6.47
Cc1[nH]c2c(c1C(=O)NCCO)CCC/C2=C1/C(=O)Nc2ccc(F)cc21 [I-9, N-(2-hydroxyethyl)-2-methyl-7-[1,2-dihydro-5-fluoro-2-oxo-3H-indol-(Z)-3-ylidene]-4,5,6,7-tetrahydro-1H-indole-3-carboxamide] | 18 | 56.1 | – | – | – | – | – | – | –
